The NIST ThermoML archive (doi:10.1021/acs.jced.8b00692)
± gives the expanded uncertainty stated by the source.

Assay: xn = mol fraction of the nth substance listed
Settings: 102 kPa, Liquid; for mass density: Vibrating tube method; for viscosity: Concentric cylinders viscometry; for speed of sound: Frequency=3 MHz, Single path-length method

CCCCCCCCCCCCC1CCCCC1 [dodecylcyclohexane] + CCCCCCCCCCCCCCCC
Settings	mass density [kg/m3]	speed of sound [m/s]	viscosity [mPa·s]
323.15 K, x1 = 0.6003	783.19 ± 0.81	–	–
323.15 K, x1 = 0.8001	792.89 ± 0.81	–	–
323.15 K, x1 = 1	802.37 ± 0.81	–	–
333.15 K, x1 = 0.2002	756.19 ± 0.81	1226.5 ± 0.7	1.76 ± 0.01
333.15 K, x1 = 0.4001	766.43 ± 0.81	1240.6 ± 0.7	1.97 ± 0.02
333.15 K, x1 = 0.5001	771.46 ± 0.81	1247.5 ± 0.7	2.1 ± 0.02
333.15 K, x1 = 0.6003	776.44 ± 0.81	1254.3 ± 0.7	2.23 ± 0.02
333.15 K, x1 = 0.8001	786.2 ± 0.81	1267.8 ± 0.8	2.53 ± 0.02
333.15 K, x1 = 1	795.74 ± 0.81	1281.1 ± 0.9	2.88 ± 0.02
343.15 K, x1 = 0.2002	749.3 ± 0.8	–	1.49 ± 0.01
343.15 K, x1 = 0.4001	759.7 ± 0.8	–	1.67 ± 0.01
343.15 K, x1 = 0.5001	764.7 ± 0.8	–	1.77 ± 0.01
343.15 K, x1 = 0.6003	769.7 ± 0.8	–	1.88 ± 0.02
343.15 K, x1 = 0.8001	779.6 ± 0.8	–	2.11 ± 0.02
343.15 K, x1 = 1	789.1 ± 0.8	–	2.39 ± 0.02
353.15 K, x1 = 0.2002	742.4 ± 0.8	–	1.28 ± 0.01
353.15 K, x1 = 0.4001	752.9 ± 0.8	–	1.43 ± 0.01
353.15 K, x1 = 0.5001	757.9 ± 0.8	–	1.51 ± 0.01
353.15 K, x1 = 0.6003	763 ± 0.8	–	1.6 ± 0.01
353.15 K, x1 = 0.8001	772.9 ± 0.8	–	1.79 ± 0.02
353.15 K, x1 = 1	782.5 ± 0.8	–	2.01 ± 0.02
363.15 K, x1 = 0.2002	735.6 ± 0.8	–	1.14 ± 0.01
363.15 K, x1 = 0.4001	746.1 ± 0.8	–	1.24 ± 0.01
363.15 K, x1 = 0.5001	751.1 ± 0.8	–	1.31 ± 0.01
363.15 K, x1 = 0.6003	756.2 ± 0.8	–	1.38 ± 0.01
363.15 K, x1 = 0.8001	766.2 ± 0.8	–	1.54 ± 0.01
363.15 K, x1 = 1	775.9 ± 0.8	–	1.72 ± 0.02
373.15 K, x1 = 0.2002	728.7 ± 0.8	–	0.978 ± 0.012
373.15 K, x1 = 0.4001	739.3 ± 0.8	–	1.08 ± 0.01
373.15 K, x1 = 0.5001	744.3 ± 0.8	–	1.14 ± 0.01
373.15 K, x1 = 0.6003	749.4 ± 0.8	–	1.21 ± 0.01
373.15 K, x1 = 0.8001	759.5 ± 0.8	–	1.34 ± 0.01
373.15 K, x1 = 1	769.2 ± 0.8	–	1.48 ± 0.01
